Source: patent US20230310554A1 (priority 2020, published 2023)
Where “and” joins values, the source holds several entries; their conditions need not be identical. Equal entries are not always repeated.

What was measured:
PC-12 cells = assay type: cell-based, rat; details: for EC50: read-out: EC50 of cyanide under existence of each antidote
[1] = test system: cyanide poisoning mouse models; design: species or system mouse (ddY); details: in vivo
[2] = test system: cyanide poisoning mouse models; design: species or system mouse (ddY); details: in vivo; remark: listed apart in the source
[3] = test system: cyanide poisoning mouse models; design: species or system mouse (ddY); details: in vivo; remark: listed apart in the source
[4] = test system: plasma proteins such as haptocorrin; details: cited from earlier work

Row | Compound | cell viability compared with the control group to which only NaCN had been added (PC-12 cells) | EC50 (PC-12 cells) | mice survived [1] [%] | time required until the recovery (coma to awakening) [2] | survival rate [3] | reduction of antidotal ability by binding to plasma proteins [4]
1 | metHb: methemoglobin produced by oxidizing OxyHb with sodium nitrite | significantly high survival rate | 23.3 mM and 28.8 mM and 31.1 mM and 19.1 mM |  |  |  | 
2 | O=S([O-])([O-])=S.[Na+].[Na+] [Na2S2O3, sodium thiosulfate] | had no effects | 9.98 mM and 12.5 mM and 12.1 mM and 10.4 mM and 10.7 mM |  |  |  | 
3 | C/C1=C2/[N-][C@H]([C@H](CC(N)=O)[C@@]2(C)CCC(=O)NC[C@@H](C)OP(=O)([O-])O[C@H]2[C@@H](O)[C@@H](n3cnc4cc(C)c(C)cc43)O[C@@H]2CO)[C@]2(C)N=C(/C(C)=C3N=C(/C=C4N=C1[C@@H](CCC(N)=O)C\4(C)C)[C@@H](CCC(N)=O)[C@]\3(C)CC(N)=O)[C@@H](CCC(N)=O)[C@]2(C)CC(N)=O.[Co+3].[OH-] [OHCbl, hydroxocobalamin] | high survival rate |  | 50 | 4.8 min and 4.6 min | 90% and 70% and 60% | 1/600
